From patent US11845959B2, “Identification of factor that promotes human HSC self-renewal” (THE REGENTS OF THE UNIVERSITY OF CALIFORNIA, priority 2016, dated 2023)

Test system: human HSPC
Assay: Flavopiridol treatment of human HSPC, HSPC expansion in culture (FACS, total HSPC expansion over time)
Assay type: cell-based
Conditions: 100 nM, similarly to MLLT3 overexpression
Text: We investigated whether an effect on transcription elongation by a different factor might change the effect. We determined that Treatment of human HSPC with Flavopiridol, a regulator of transcription elongation machinery, expands HSPC in culture.

CN1CC[C@H](c2c(O)cc(O)c3c(=O)cc(-c4ccccc4Cl)oc23)[C@H](O)C1 [Flavopiridol] was tested, and the “HSPC expansion in culture” value was “sustained HSPC expansion in culture”.
